According to patent US7351711B2, “Tricyclic indanyls as integrin inhibitors” (Janssen Pharmaceutical, N.V., priority 2003, dated 2008):
Read-outs that look alike come from different tables or passages of the source.

Columns and labels:
human purified αVβ5 = target: T1, human purified αVβ5 (Homo sapiens, UniProt P06756+P18084); assay: In vitro solid phase purified αvβ5 binding assay (vitronectin/αVβ5); conditions: inhibition of vitronectin binding to immobilized αVβ5; read-out: Antagonist IC50 Activity αVβ5
T1 construct: purchased Chemicon International, Inc
Description: (§1) The vitronectin/αvβ3 binding assay methods were derived from Mehta et al. (Biochem J,. 1998, 330, 861). Human αvβ3 (Chemicon International Inc., Temecula, Calif.), at a concentration of 1 μg/ml dissolved in Tris buffer (20 mM Tris, 1 mM CaCl2, 1 mM MgCl2, 10 μM MnCl2, 150 mM NaCl), was immobilized on Immulon 96 well plates (Dynex Technologies, Chantilly, Va.) overnight at 4° C. Plates were washed and treated with blocking buffer (3% BSA in Tris buffer) for 2 h at 37° C. Plates were then rinsed 2 times with assay buffer comprised of Tris buffer. Synthesized compounds were added to wells in duplicate immediately prior to the addition of 2 nM vitronectin (Sigma, St. Louis, Mo.). Following a 3 hour incubation at 37° C., plates were washed 5 times in assay buffer. An anti-human vitronectin IgG rabbit polyclonal antibody (Calbiochem, San Diego, Calif.) was added (1:2000) and plates were incubated for 1 hour at room temperature. VectaStain ABC peroxidase kit reagents (Vector Laboratories, Burlingame, Calif.) employing a biotin labeled anti-rabbit IgG, were utilized for detection of bound antibody. Plates were read at 490 nm on a Molecular Devices (Sunnyvale, Calif.) microplate reader.
In Vitro Solid Phase Purified αvβ5 Binding Assay
The vitronectin/αVβ5 binding assay method was performed in the same manner as the vitronectin/αVβ3 binding assay of Example 2, with the difference that 1 μg/mL of human purified αVβ5 (Chemicon International, Inc.) was immobilized onto Immulon 96 well plates (Dynex Technologies) instead of αVβ3. All other aspects of the assay including buffers, reagents and incubation times remain unchanged.

Human αvβ3 = target: T2, Human αvβ3 (Homo sapiens, UniProt P05106+P06756); assay: In vitro solid phase purified αvβ3 binding assay (vitronectin/αvβ3); conditions: for IC50: read-out: Antagonist IC50 Activity αVβ3
T2 construct: purchased Chemicon International Inc., Temecula, Calif
Description: In Vitro Solid Phase Purified αvβ3 Binding Assay
as §1

T1 sequence (P06756 31-889 limits assumed): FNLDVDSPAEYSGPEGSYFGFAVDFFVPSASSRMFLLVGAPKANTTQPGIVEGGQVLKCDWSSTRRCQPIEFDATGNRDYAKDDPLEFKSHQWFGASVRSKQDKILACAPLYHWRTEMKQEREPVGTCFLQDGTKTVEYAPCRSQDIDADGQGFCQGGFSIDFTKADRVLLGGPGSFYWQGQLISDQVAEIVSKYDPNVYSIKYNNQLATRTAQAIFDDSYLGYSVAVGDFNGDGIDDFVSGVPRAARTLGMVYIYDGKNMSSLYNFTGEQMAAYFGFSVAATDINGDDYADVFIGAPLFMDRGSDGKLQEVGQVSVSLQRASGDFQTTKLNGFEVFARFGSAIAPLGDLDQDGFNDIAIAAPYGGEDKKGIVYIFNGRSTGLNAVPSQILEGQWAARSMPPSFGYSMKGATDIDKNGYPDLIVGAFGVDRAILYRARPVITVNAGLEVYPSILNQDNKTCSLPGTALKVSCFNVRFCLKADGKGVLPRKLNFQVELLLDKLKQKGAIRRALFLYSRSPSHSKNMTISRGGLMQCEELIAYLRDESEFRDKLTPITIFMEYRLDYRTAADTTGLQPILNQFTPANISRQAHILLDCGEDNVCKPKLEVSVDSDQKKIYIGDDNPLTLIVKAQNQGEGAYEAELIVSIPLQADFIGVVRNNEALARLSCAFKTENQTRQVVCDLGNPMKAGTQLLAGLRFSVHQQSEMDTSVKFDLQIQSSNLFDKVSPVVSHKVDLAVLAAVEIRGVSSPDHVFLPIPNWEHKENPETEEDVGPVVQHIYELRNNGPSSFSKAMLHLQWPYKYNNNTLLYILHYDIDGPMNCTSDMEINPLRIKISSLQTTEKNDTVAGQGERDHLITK
T1 sequence (P06756 891-1048 partner limits assumed): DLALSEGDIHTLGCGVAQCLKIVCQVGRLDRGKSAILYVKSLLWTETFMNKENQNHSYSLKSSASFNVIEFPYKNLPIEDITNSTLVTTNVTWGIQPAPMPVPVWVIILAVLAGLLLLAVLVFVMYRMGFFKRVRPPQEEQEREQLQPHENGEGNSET
T1 sequence (P18084 24-799): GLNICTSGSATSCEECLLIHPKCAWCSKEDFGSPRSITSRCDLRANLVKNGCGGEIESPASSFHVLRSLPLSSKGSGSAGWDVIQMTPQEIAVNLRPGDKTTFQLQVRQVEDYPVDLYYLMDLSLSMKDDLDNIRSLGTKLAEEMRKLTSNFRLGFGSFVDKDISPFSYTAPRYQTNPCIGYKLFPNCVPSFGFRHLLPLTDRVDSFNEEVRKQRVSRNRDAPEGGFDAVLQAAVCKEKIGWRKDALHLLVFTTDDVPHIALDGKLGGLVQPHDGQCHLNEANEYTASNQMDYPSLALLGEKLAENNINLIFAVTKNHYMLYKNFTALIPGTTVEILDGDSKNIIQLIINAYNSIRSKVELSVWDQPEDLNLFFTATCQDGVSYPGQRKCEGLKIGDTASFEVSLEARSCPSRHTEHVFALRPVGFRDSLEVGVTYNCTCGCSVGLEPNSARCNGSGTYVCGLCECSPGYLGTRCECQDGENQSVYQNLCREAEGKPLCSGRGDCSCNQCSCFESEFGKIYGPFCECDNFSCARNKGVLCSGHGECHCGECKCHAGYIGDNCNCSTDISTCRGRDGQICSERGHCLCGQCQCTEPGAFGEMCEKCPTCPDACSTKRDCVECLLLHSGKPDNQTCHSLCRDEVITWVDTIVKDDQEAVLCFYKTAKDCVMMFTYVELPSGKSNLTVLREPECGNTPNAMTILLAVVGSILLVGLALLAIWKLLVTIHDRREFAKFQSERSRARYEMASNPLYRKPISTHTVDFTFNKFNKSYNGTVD
T2 sequence (P06756 31-889 limits assumed): as the sequence (P06756 31-889 limits assumed) above
T2 sequence (P06756 891-1048 partner limits assumed): as the sequence (P06756 891-1048 partner limits assumed) above
T2 sequence (P05106 27-788): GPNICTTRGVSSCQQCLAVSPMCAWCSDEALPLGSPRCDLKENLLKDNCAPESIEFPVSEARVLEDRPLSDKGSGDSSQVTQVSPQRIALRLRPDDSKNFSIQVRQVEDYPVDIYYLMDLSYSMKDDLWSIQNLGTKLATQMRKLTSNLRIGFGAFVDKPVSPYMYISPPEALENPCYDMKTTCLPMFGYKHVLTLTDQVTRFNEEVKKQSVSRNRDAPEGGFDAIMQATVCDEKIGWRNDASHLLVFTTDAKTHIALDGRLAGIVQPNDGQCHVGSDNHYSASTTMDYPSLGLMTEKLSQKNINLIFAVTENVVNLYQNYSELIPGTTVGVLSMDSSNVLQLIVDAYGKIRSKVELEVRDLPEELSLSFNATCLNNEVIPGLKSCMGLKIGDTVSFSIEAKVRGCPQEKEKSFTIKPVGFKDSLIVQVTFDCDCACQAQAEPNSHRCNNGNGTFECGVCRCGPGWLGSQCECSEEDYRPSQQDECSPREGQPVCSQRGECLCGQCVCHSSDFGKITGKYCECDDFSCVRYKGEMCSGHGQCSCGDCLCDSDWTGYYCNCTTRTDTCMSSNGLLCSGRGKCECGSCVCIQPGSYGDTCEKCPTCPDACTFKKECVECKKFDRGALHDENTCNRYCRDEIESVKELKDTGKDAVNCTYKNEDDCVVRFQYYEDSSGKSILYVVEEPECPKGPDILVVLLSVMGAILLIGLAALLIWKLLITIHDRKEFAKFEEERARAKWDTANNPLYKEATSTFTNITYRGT

| Structure (SMILES) | IC50 (human purified αVβ5) | IC50 (Human αvβ3) | IC50 (Human αvβ3; inhibition of 2 nM vitronectin binding to immobilized αvβ3) | Antagonist activity αVβ3, % @ 50 μM (Human αvβ3) |
| --- | --- | --- | --- | --- |
| O=C(O)CC1c2ccccc2C2CN(C(=O)CCCc3ccc4c(n3)NCCC4)CCC12 (racemic) [Cpd 3] | 0.23 ± 0.04 µM | 0.085 ± 0.008 µM |  |  |
| O=C(O)CC1c2ccccc2C2CN(C(=O)CCc3ccc4c(n3)NCCC4)CCC12 (racemic) [Cpd 4] | 0.189 µM | 0.087 µM |  |  |
| O=C(O)CC1c2ccccc2C2CCN(C(=O)CCc3ccc4c(n3)NCCC4)CC21 (racemic) [Cpd 11] |  | > 0.001 µM |  |  |
| O=C(O)CC1c2ccccc2C2CN(C(=O)CCc3ccc4c(n3)NCCC4)CC12 (racemic) [Cpd 12] | 0.015 ± 0.002 µM | 0.026 ± 0.008 µM |  |  |
| O=C(O)CC1c2ccccc2C2CN(C(=O)CCCc3ccc4c(n3)NCCC4)CC12 (racemic) [Cpd 15] | 0.538 µM | 0.411 µM |  |  |
| O=C(O)C[C@@H]1c2ccccc2[C@@H]2CN(C(=O)Cc3cccc(NC4=NCCCN4)c3)CC[C@H]12 (single isomer, unassigned) [Cpd 1, (3-{2-[3-(1,4,5,6,-Tetrahydro-pyrimidin-2-ylamino)-phenyl]-acetyl}-2,3,4,4a,9,9a-hexahydro-1H-3-aza-fluoren-9-yl)-acetic acid] | 1.02 ± 0.18 µM | 0.066 ± 0.006 µM |  |  |
| O=C(O)C[C@H]1c2ccccc2[C@@H]2CN(C(=O)Cc3cccc(NC4=NCCCN4)c3)CC[C@H]12 (single isomer, unassigned) [Cpd 2, (3-{2-[3-(1,4,5,6,-Tetrahydro-pyrimidin-2-ylamino)-phenyl]-acetyl}-2,3,4,4a,9,9a-hexahydro-1H-3-aza-fluoren-9-yl)-acetic acid] | 0.217 ± 0.005 µM | 0.126 ± 0.04 µM |  |  |
| O=C(O)CC1c2ccccc2C2CN(C(=O)CCc3ccc4c(n3)NCCC4)CC12 (single isomer, unassigned) [Cpd 13, [2-(3-5,6,7,8-Tetrahydro-[1,8]naphthyrin-2-yl-propionyl)-1,2,3,3a,8,8a-hexahydro-2-aza-cyclopenta[a]inden-8-yl]-acetic acid] | 0.26 ± 0.06 µM | 0.29 ± 0.09 µM |  |  |
| O=C(O)CC1c2ccccc2C2CN(C(=O)CCCNc3ccccn3)CCC12 (stereo not drawn) [Cpd 6, {3-[4-(Pyridin-2-ylamino)-butyryl]-2,3,4,4a,9,9a-hexahydro-1H-3-aza-fluoren-9-yl}-acetic acid] |  | > 0.001 µM |  |  |
| O=C(O)CC1c2ccccc2C2CN(C(=O)CCCNc3ccccn3)CCC12 (stereo not drawn) [Cpd 7, {3-[4-(Pyridin-2-ylamino)-butyryl]-2,3,4,4a,9,9a-hexahydro-1H-3-aza-fluoren-9-yl}-acetic acid] |  |  | > 0.001 µM |  |
| O=C(O)CC1c2ccccc2C2CCN(C(=O)CCCc3ccc4c(n3)NCCC4)CC21 (stereo not drawn) [Cpd 9, [2-(4-5,6,7,8-Tetrahydro-[1,8]naphthyridine-2-yl-butyryl)-2,3,4,4a,9,9a-hexahydro-1H-indeno[2,1-c]pyridin-9-yl]-acetic acid] |  |  |  | 41% @ |
| O=C(O)CC1c2ccccc2C2CCN(C(=O)CCCc3ccc4c(n3)NCCC4)CC21 (stereo not drawn) [Cpd 10, [2-(4-5,6,7,8-Tetrahydro-[1,8]naphthyridine-2-yl-butyryl)-2,3,4,4a,9,9a-hexahydro-1H-indeno[2,1-c]pyridin-9-yl]-acetic acid] |  |  |  | 51% @ 50 μM |
| O=C(O)C[C@H]1c2ccccc2[C@@H]2CN(C(=O)CCc3ccc4c(n3)NCCC4)C[C@H]12 [Cpd 14, [2-(3-5,6,7,8-Tetrahydro-[1,8]naphthyrin-2-yl-propionyl)-1,2,3,3a,8,8a-hexahydro-2-aza-cyclopenta[a]inden-8-yl]-acetic acid] | 0.0058 ± 0.0012 µM | 0.017 ± 0.003 µM |  |  |
